Source: patent US9227971B2, “Pyrazolo[1,5-a]pyrimidine compounds as mTOR inhibitors” (Merck Sharp & Dohme Corp., priority 2010, dated 2016)
Read-outs that look alike come from different tables or passages of the source.

Tests used:
[1] = test system: phosphorylated AKT Ser473 (pAKT S473), mTORC2 activity, PC3 cells; experiment: mTOR target engagement assay, immunofluorescent cell-based, pAKT S473 readout (mTORC2 activity); conditions: Homo sapiens
Method in brief: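 After blocking, cells were stained overnight at 4 °C with anti-pAKT S473 antibody, then a fluorescent secondary; inhibition was read as reduced fluorescence intensity.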

[2] = test system: phosphorylated 4E-BP1 Thr37/46 (p4E-BP1 Thr37/46), mTORC1 activity, PC3 cells; experiment: mTOR target engagement assay, immunofluorescent cell-based, p4E-BP1 Thr37/46 readout (mTORC1 activity); conditions: Homo sapiens, read-out: p4E-BP1 Thr37/46 IC50
Method in brief: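 PTEN-mutant PC3 prostate cells were treated with serially diluted compound in 5% FBS F12 medium (0.25% DMSO) for ninety minutes at 37° C, glyoxal-fixed, then immunostained overnight at 4° C for p4E-BP1 Thr37/46 with an Alexa Fluor 488 secondary. IC50 came from four-parameter fits of fluorescence, DMSO-only wells defining 100%.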

[3] = PC-3, PC3 cells, compound treatment ninety minutes at 37° C.

[2H]C1(O)CCCc2cc(-c3cnn4c(N)c(C5CC5)c([C@H]5CC6CC[C@H](C5)N6C(=O)c5nnc[nH]5)nc34)cnc21 (stereo partly drawn) [Compound 7.56, DEUTERATED-(3- EXO)-3-[7-AMINO-6- CYCLOPROPYL-3- (5,6,7,8- TETRAHYDRO-8- HYDROXY-3- QUINOLINYL- (D))PYRAZOLO[1,5- a]PYRIMIDIN-5-YL]-8- (4H-1,2,4-TRIAZOL-3- YLCARBONYL)-8- AZABICYCLO[3.2.1] OCTANE]
IC50 ([1]; PC-3, PC3 cells): 1 to 100 nM
IC50 ([2]; PC-3, PC3 cells): 1 to 100 nM

COc1nnc(C(=O)N2C3CCC2CC(c2nc4c(-c5ccc(-c6ccccc6)nc5)cnn4c(N)c2C2CC2)C3)[nH]1 [Compound 8.103, ((1R,3s,5S)-3-(7-amino-6-cyclopropyl-3-(6-phenylpyridin-3-yl)pyrazolo[1,5-a]pyrimidin-5-yl)-8-azabicyclo[3.2.1]octan-8-yl)(5-methoxy-4H-1,2,4-triazol-3-yl)methanone]
IC50 ([1]; PC-3, PC3 cells): 100 to 1000 nM
IC50 ([2]; PC-3, PC3 cells): 100 to 1000 nM

CC(=O)c1c([C@@H]2C[C@H]3CC[C@@H](C2)N3C(=O)c2nnc[nH]2)nc2c(-c3cnc(C(C)(C)O)nc3)cnn2c1N [Compound 1.1.180, 1-(5-((1R,3s,5S)-8-(4H-1,2,4-triazole-3-carbonyl)-8-azabicyclo[3.2.1]octan-3-yl)-7-amino-3-(2-(2-hydroxypropan-2-yl)pyrimidin-5-yl)pyrazolo[1,5-a]pyrimidin-6-yl)ethanone]
IC50 [1, 3]: 100 to 1000 nM
IC50 [2, 3]: 100 to 1000 nM

CS(=O)(=O)c1c([C@H]2CC3CC[C@H](C2)N3C(=O)c2ncn[nH]2)nc2c(-c3ccc(C4CCC4)nc3)cnn2c1N [Compound 3.167, ((1R,3s,5S)-3-(7-amino-3-(6-cyclobutylpyridin-3-yl)-6-(methylsulfonyl)pyrazolo[1,5-a]pyrimidin-5-yl)-8-azabicyclo[3.2.1]octan-8-yl)(1H-1,2,4-triazol-5-yl)methanone]
IC50 ([1]; PC-3, Table 3-1, PC3 cells): 100 to 1000 nM
IC50 ([2]; PC-3, Table 3-1, PC3 cells): 100 to 1000 nM

CC(=O)c1c([C@@H]2C[C@H]3CC[C@@H](C2)N3C(=O)c2cc(N)n[nH]2)nc2c(-c3ccc(-c4ccc(F)cc4F)nc3)cnn2c1N [Compound 1.1.166, 1-(7-amino-5-((1R,3s,5S)-8-(3-amino-1H-pyrazole-5-carbonyl)-8-azabicyclo[3.2.1]octan-3-yl)-3-(6-(2,4-difluorophenyl)pyridin-3-yl)pyrazolo[1,5-a]pyrimidin-6-yl)ethanone]
IC50 [1, 3]: 1 to 100 nM
IC50 [2, 3]: 1 to 100 nM

Nc1c(C2CC2)c([C@@H]2C[C@H]3CC[C@@H](C2)N3C(=O)c2nnc[nH]2)nc2c(C#Cc3cccnc3)cnn12 [Compound 8.62, ((1R,3s,5S)-3-(7-amino-6-cyclopropyl-3-(pyridin-3-ylethynyl)pyrazolo[1,5-a]pyrimidin-5-yl)-8-azabicyclo[3.2.1]octan-8-yl)(4H-1,2,4-triazol-3-yl)methanone]
IC50 ([1]; PC-3, PC3 cells): 1000 to 10000 nM
IC50 ([2]; PC-3, PC3 cells): 1000 to 10000 nM

CS(=O)(=O)c1c([C@@H]2C[C@H]3CC[C@@H](C2)N3C(=O)c2nnc[nH]2)nc2c(-c3ccc(OCC4CC4)nc3)cnn2c1N [Compound 8.54, ((1R,3s,5S)-3-(7-amino-3-(6-(cyclopropylmethoxy)pyridin-3-yl)-6-(methylsulfonyl)pyrazolo[1,5-a]pyrimidin-5-yl)-8-azabicyclo[3.2.1]octan-8-yl)(4H-1,2,4-triazol-3-yl)methanone]
IC50 ([1]; PC-3, PC3 cells): > 10000 nM
IC50 ([2]; PC-3, PC3 cells): > 10000 nM

CCOC(=O)Nc1ccc(-c2cnn3c(N)c(C(C)=O)c([C@@H]4C[C@H]5CC[C@@H](C4)N5C(=O)c4ncn[nH]4)nc23)cn1 [Compound 8.78, ethyl 5-(5-((1R,3s,5S)-8-(1H-1,2,4-triazole-5-carbonyl)-8-azabicyclo[3.2.1]octan-3-yl)-6-acetyl-7-aminopyrazolo[1,5-a]pyrimidin-3-yl)pyridin-2-ylcarbamate]
IC50 ([1]; PC-3, PC3 cells): 1 to 100 nM
IC50 ([2]; PC-3, PC3 cells): 1 to 100 nM

Cn1cc(-c2ccc(-c3cnn4c(N)c(S(C)(=O)=O)c([C@@H]5C[C@H]6CC[C@@H](C5)N6C(=O)c5nnc[nH]5)nc34)cn2)cn1 [Compound 3.106, ((1R,3s,5S)-3-(7-amino-3-(6-(1-methyl-1H-pyrazol-4-yl)pyridin-3-yl)-6-(methylsulfonyl)pyrazolo[1,5-a]pyrimidin-5-yl)-8-azabicyclo[3.2.1]octan-8-yl)(4H-1,2,4-triazol-3-yl)methanone]
IC50 ([1]; PC-3, Table 3-1, PC3 cells): 1 to 100 nM
IC50 ([2]; PC-3, Table 3-1, PC3 cells): 1 to 100 nM

CC(=O)Nc1nnc(C(=O)N2[C@@H]3CC[C@H]2C[C@H](c2nc4c(-c5ccc(-c6ccccc6)nc5)cnn4c(N)c2C2CC2)C3)[nH]1 [Compound 4.28, N-(5-((1R,3s,5S)-3-(7-amino-6-cyclopropyl-3-(6-phenylpyridin-3-yl)pyrazolo[1,5-a]pyrimidin-5-yl)-8-azabicyclo[3.2.1]octane-8-carbonyl)-4H-1,2,4-triazol-3-yl)acetamide]
IC50 [1, 3]: 100 to 1000 nM
IC50 [2, 3]: 100 to 1000 nM

COc1ccc(-c2ncc(-c3cnn4c(N)c(S(C)(=O)=O)c([C@@H]5C[C@H]6CC[C@@H](C5)N6C(=O)c5nnc[nH]5)nc34)cn2)c(F)c1F [Compound 3.148, ((1R,3s,5S)-3-(7-amino-3-(2-(2,3-difluoro-4-methoxyphenyl)pyrimidin-5-yl)-6-(methylsulfonyl)pyrazolo[1,5-a]pyrimidin-5-yl)-8-azabicyclo[3.2.1]octan-8-yl)(4H-1,2,4-triazol-3-yl)methanone]
IC50 ([1]; PC-3, Table 3-1, PC3 cells): 100 to 1000 nM
IC50 ([2]; PC-3, Table 3-1, PC3 cells): 100 to 1000 nM

CC(=O)c1c([C@H]2CC3CC[C@H](C2)N3C(=O)c2nnc[nH]2)nc2c(-c3ccc(C(O)C(F)(F)F)nc3)cnn2c1N (stereo partly drawn) [Compound 7.65, 1-(5-((1R,3s,5S)-8-(4H-1,2,4-triazole-3-carbonyl)-8-azabicyclo[3.2.1]octan-3-yl)-7-amino-3-(6-(2,2,2-trifluoro-1-hydroxyethyl)pyridin-3-yl)pyrazolo[1,5-a]pyrimidin-6-yl)ethanone]
IC50 ([1]; PC-3, PC3 cells): 100 to 1000 nM
IC50 ([2]; PC-3, PC3 cells): 100 to 1000 nM

CC(=O)c1c([C@@H]2C[C@H]3CC[C@@H](C2)N3C(=O)c2nnc[nH]2)nc2c(-c3ccc(-c4cccnc4F)nc3)cnn2c1N [Compound 1.1.62, 1-(5-((1R,3s,5S)-8-(4H-1,2,4-triazole-3-carbonyl)-8-azabicyclo[3.2.1]octan-3-yl)-7-amino-3-(2′-fluoro-2,3′-bipyridin-5-yl)pyrazolo[1,5-a]pyrimidin-6-yl)ethanone]
IC50 [1, 3]: 1 to 100 nM
IC50 [2, 3]: 1 to 100 nM

CC(=O)c1c([C@@H]2C[C@H]3CC[C@@H](C2)N3C(=O)N2CCOCC2)nc2c(-c3ccc(-c4ccccc4)nc3)cnn2c1N [Compound 1.1.122, 1-(7-amino-5-((1R,3s,5S)-8-(morpholine-4-carbonyl)-8-azabicyclo[3.2.1]octan-3-yl)-3-(6-phenylpyridin-3-yl)pyrazolo[1,5-a]pyrimidin-6-yl)ethanone]
IC50 [1, 3]: 1000 to 10000 nM
IC50 [2, 3]: 1000 to 10000 nM

CC(=O)c1c([C@@H]2C[C@H]3CC[C@@H](C2)N3C(=O)c2nnc[nH]2)nc2c(-c3ccc(C(O)CC(C)C)nc3)cnn2c1N (stereo partly drawn) [Compound 7.6, 1-(5-((1R,3s,5S)-8-(4H-1,2,4-triazole-3-carbonyl)-8-azabicyclo[3.2.1]octan-3-yl)-7-amino-3-(6-(1-hydroxy-3-methylbutyl)pyridin-3-yl)pyrazolo[1,5-a]pyrimidin-6-yl)ethanone]
IC50 [1, 3]: 1000 to 10000 nM
IC50 [2, 3]: 100 to 1000 nM

CC(=O)c1c([C@@H]2C[C@H]3CC[C@@H](C2)N3C(=O)c2nnc(C)[nH]2)nc2c(-c3ccc(-c4ncc[nH]4)nc3)cnn2c1N [Compound 6.21, 1-(3-(6-(1H-imidazol-2-yl)pyridin-3-yl)-7-amino-5-((1R,3s,5S)-8-(5-methyl-4H-1,2,4-triazole-3-carbonyl)-8-azabicyclo[3.2.1]octan-3-yl)pyrazolo[1,5-a]pyrimidin-6-yl)ethanone]
IC50 ([1]; PC-3, Table 6-1, PC3 cells): 1 to 100 nM
IC50 ([2]; PC-3, Table 6-1, PC3 cells): 1 to 100 nM

CC(=O)c1c([C@@H]2C[C@H]3CC[C@@H](C2)N3C(=O)CO)nc2c(-c3ccc(-n4ccc(C)n4)nc3)cnn2c1N [Compound 1.1.133, 1-((1R,3s,5S)-3-(6-acetyl-7-amino-3-(6-(3-methyl-1H-pyrazol-1-yl)pyridin-3-yl)pyrazolo[1,5-a]pyrimidin-5-yl)-8-azabicyclo[3.2.1]octan-8-yl)-2-hydroxyethanone]
IC50 [1, 3]: 100 to 1000 nM
IC50 [2, 3]: 1000 to 10000 nM

COc1ccc(-c2ccc(-c3cnn4c(N)c(C(C)=O)c([C@@H]5C[C@H]6CC[C@@H](C5)N6C(=O)c5nnc[nH]5)nc34)cn2)cc1C#N [Compound 1.1.124, 5-(5-(5-((1R,3s,5S)-8-(4H-1,2,4-triazole-3-carbonyl)-8-azabicyclo[3.2.1]octan-3-yl)-6-acetyl-7-aminopyrazolo[1,5-a]pyrimidin-3-yl)pyridin-2-yl)-2-methoxybenzonitrile]
IC50 [1, 3]: 100 to 1000 nM
IC50 [2, 3]: 100 to 1000 nM

COCc1cc(-c2ccc(-c3cnn4c(N)c(C(C)=O)c([C@@H]5C[C@H]6CC[C@@H](C5)N6C(=O)c5nnc[nH]5)nc34)cn2)ccc1OC [Compound 1.1.45, 1-(5-((1R,3s,5S)-8-(4H-1,2,4-triazole-3-carbonyl)-8-azabicyclo[3.2.1]octan-3-yl)-7-amino-3-(6-(4-methoxy-3-(methoxymethyl)phenyl)pyridin-3-yl)pyrazolo[1,5-a]pyrimidin-6-yl)ethanone]
IC50 [1, 3]: 1 to 100 nM
IC50 [2, 3]: 1 to 100 nM
